These results are taken from patent US20220204501A1, “ENTEROVIRUS INHIBITOR” (ACADEMY OF MILITARY MEDICAL SCIENCES, priority 2019, published 2022).

Assay [1] has as its system EV-D68.
The subject of assay [2] is Poliovirus I/II/III (mixed vaccine strains of three subtypes).
The subject of assay [3] is EV71 virus. In words: microbe, parasite or virus in culture. To be noted: Enterovirus A, EV71, RD, 96 h.
A further assay has as its system CA16. In words: organism not typed. The assay is classed as cell-based. To be noted: RD, 96 h.
In a further assay the test system is CA6. In words: organism not typed. To be noted: RD, 96 h. The assay is classed as cell-based.
Assay [4] has as its system Poliovirus I/II/III (mixed vaccine strains of three subtypes). Nature of the assay: microbe, parasite or virus in culture. To be noted: Enterovirus C, RD, 96 h.
The next assay concerns CA10. In words: organism not typed. The assay is classed as cell-based. To be noted: RD, 96 h.
Assay [5] relates to EV-D68. In words: microbe, parasite or virus in culture. The following applies: Enterovirus D, EVD68, RD, 96 h.
The target in a further assay is mTOR kinase (Homo sapiens, UniProt P42345). Nature of the assay: Inhibitory activity on mTOR kinase (TR-FRET, GFP-4E-BP1 substrate). The assay is classed as biochemical. The following applies: fit parameter of concentration-mTOR kinase inhibition curve. For orientation: Time-resolved FRET reads energy transfer from a long-lived donor to a nearby acceptor.
A further assay has as its target mTORC2 (Homo sapiens, UniProt P42345). The following applies: RD cells, 20 μM, 2 hours, insulin medium, Western blot. A general note: In western blotting, separated proteins are transferred to a membrane and probed.
In assay [6] the test system is CB3 virus.
In assay [7] the test system is CB3 virus. Nature of the assay: organism not typed. The following applies: Vero, 120 h.
The test system of assay [8] is EV71 virus.
For a further assay, the target named is mTORC1 (Homo sapiens, UniProt P42345). The following applies: RD cells, 20 μM, 2 hours, insulin medium, Western blot.

As usually defined, the IC50 is the concentration that gives 50% inhibition. Low readings indicate higher potency, high ones lower potency. `Nc1ccc(-c2ccc3ncc4ccc(=O)n(-c5cccc(C(F)(F)F)c5)c4c3c2)cn1` [compound of Formula I, 9-(6-amino-pyridin-3-yl)-1-(3-trifluoromethyl-phenyl)-1H-benzo[h][1,6]naphthyridin-one]: the “inhibitory effect on enterovirus (in words)” value (with EV-D68 [1]; in assay [2]; in the assay with CB3 virus [6]; in the assay with EV71 virus [8]) was “significant inhibitory effect” each time. For the same molecule, the IC50 in the assay with EV71 virus [3] is 10 nM; in the assay on CA16, > 10000 nM; in the assay on CA6, > 10000 nM; in assay [4], 52 nM; in the assay on CA10 it was > 10000 nM; in the assay with EV-D68 [5], 5 nM. In the assay with CB3 virus [7], this molecule showed an IC50 of 5 nM. For the same molecule, the Bottom at mTOR kinase is reported as 3.74. Besides, the HillSlope at mTOR kinase was found to be 1.14. The Top at mTOR kinase was determined as 103.60. Also, on mTORC2, the “phosphorylation level of Akt (Ser473)” value is on record as “significantly down-regulate”. For the same molecule, the “phosphorylation expression levels of p70 (Thr389 of p70S6K1)” value at mTORC1 is given as “significantly reduced”.
